# Measurements taken from article PMC10296995, “Phospholipid Encapsulation of an Anti-Fibrotic Endopeptide to Enhance Cellular Uptake and Myocardial Retention” (Cells, 2023).
# Where a SMILES comes first, the peptide text is derived from it.
# Key:
# [1] = rapid breakdown by angiotensin-converting enzymes; cited from earlier work
# Text: (a) Schematic representation of free Ac-SDKP, a liposome (a lipid bilayer nanoparticle), and L-Ac-SDKP (Ac-SDKP inside the liposome). (b,c) Representative graphs of liposome size distribution and zeta potential, respectively, by nanoparticle tracking analysis. Comparative data for empty liposome (L-PBS) and L-Ac-SDKP for (d) size, (e) polydispersity, and (f) zeta potential. (g), Ac-SDKP concentration in the liposomal formulations (L-PBS vs. L-Ac-SDKP). Cryo-TEM images of L-Ac-SDKP (h) and empty liposome (L-PBS) (i) and a comparative data for size (j). Scale ...
# [2] = test system: human cardiac fibroblasts; experiment: MTT cell viability assay, cardiac fibroblasts; format: cell-based; conditions: 0.24 µg/mL, 24 h, n = 7-8
# Procedure: To access cell viability and proliferation in response to the liposome-peptide, Thiazolyl Blue Tetrazolium Bromide (MTT; Sigma-Aldrich, M2128) assay was performed. Briefly, human cardiac fibroblasts (Lifeline Cell Technology, San Diego, CA, USA #FC-0060) and RAW macrophages were plated into 96-well plates at a density of 8000–10,000 cells/well. After 24 h, cells were serum-starved overnight, followed by incubation in empty liposomes and PBS (L-PBS), L-Ac-SDKP (0.24 µg/mL), or Ac-SDKP (0.24 µg/mL) for an additional 24 h. After this, the media were replaced, and the cells were incubated in the MTT substrate for 3.5 h at 37 °C. The yellow-orange colored product, a stable soluble formazan, was quantified at 450 nm using a microplate reader. Relative viability was calculated in relation to the cells treated with culture media alone as a control.
# [3] = test system: primary mouse cardiac fibroblasts; experiment: Cellular uptake by flow cytometry, cardiac fibroblasts; format: cell-based; conditions: FITC-labeled peptide 0.24 µg/mL, 4 h, mean ± SD, n = 4
# Procedure: Cellular uptake of L-Ac-SDKP was assessed in mouse cardiac fibroblasts and macrophages. Briefly, cultured macrophages (RAW 264.7 cells, ATCC) and primary mouse cardiac fibroblasts were incubated with L-Ac-SDKP or free peptides (Ac-SDKP) at a concentration of 0.24 µg/mL. For the intracellular distribution assay, cells were cultured on sterile coverslips, incubated with Ac-SDKP or L-Ac-SDKP for 4 h, fixed with 4% paraformaldehyde, mounted, and imaged using a fluorescence microscope (Zeiss LSM 800 laser scanning microscope) at ×400 magnification. For quantification of the peptide uptake, cells were detached and examined with a BD Accuri C6-Plus flow cytometer and further analyzed by FCS Express 6-De Novo software, […].
smiles,measurement,setting,value
"CC(=O)N[C@@H](CO)C(=O)N[C@@H](CC(=O)O)C(=O)N[C@@H](CCCCN)C(=O)N1CCC[C@H]1C(=O)O [Ac-SDKP, N-acetyl-ser-asp-lys-pro] (Ac-SDKP-OH)",plasma half-life,[1],4.5 min
same,"percent cell viability, cardiac fibroblasts",[2],did not affect percent cell viability
same,percentage of FITC-positive cardiac fibroblasts (uptake),[3],8.5% ± 2.96
